Measurements published in patent US5420276A, “Analogs of oxetanyl purines and pyrimidines” (Abbott Laboratories, priority 1993, dated 1995).
In brackets after ≈: the same amount, converted by molar mass. Like-named read-outs stand apart in the source and are kept apart here.

Experiments:
[1] = tested on: Herpes simplex type 2 (HSV-2) strain MS; test: CPE-inhibition assay, herpes simplex type 2 strain MS in Vero cells; format: cell-based, herpes simplex virus type 2; details: for VR (Virus Rating): HSV-2 (MS)
Protocol: (§1) The challenge viruses were propagated and assayed in cells that were pregrown as monolayer cultures in plastic tissue culture flasks and 96-well plates, using cell culture media appropriate for the host cell cultures. The following viruses and host cell cultures were employed:
(§2) green monkey kidney (Vero)
(§3) On the day of use, a weighed sample of each compound to be evaluated was dissolved and diluted in serial 10^0.5 dilutions in the culture medium appropriate for each virus-host cell system.
(§4) Mammalian cells were pregrown as monolayers in wells of COSTAR 96-well tissue culture plates using suitable cell culture media. Stock viruses were pretitered according to the method of Reed and Muench (Amer. J. Hyg. 27:493-497, 1938) and diluted in cell culture medium to yield 32 CCID50 (cell culture infectious dose, 50%) units per 0.1 ml. Antiviral assays were designed to test seven concentrations of each compound, from cytotoxic to noncytotoxic levels, in triplicate against each of the challenge viruses in microtiter plate wells containing suitable cell monolayers. To each of the replicate cell cultures were added 0.1 ml of the test drug solution and 0.1 ml of virus suspension. Cell controls containing medium alone, virus controls containing medium and virus, and drug cytotoxicity controls containing medium and each drug concentration were run simultaneously with the test samples assayed in each experiment. […] The cell monolayers were examined microscopically for virus-induced CPE and for drug cytotoxicity.
(§5) Antiviral activity was determined by calculating the degree of inhibition of virus-induced CPE in drug-treated, virus-infected cell cultures by means of a virus rating (VR). The VR is a standard weighted measurement of antiviral activity taking into account both the degree of CPE inhibition and drug cytotoxicity, and is determined by a modification of the method of Ehrlich et al. (Ann. N.Y. Acad. Sci. 130: 5-16, 1965) as described below. CPE was graded for each individual culture in each microtiter plate well according to the following scale:
(§6) 4=100% of the cells affected by virus;
(§7) 3=75% of the cells affected by virus;
(§8) 2=50% of the cells affected by virus;
(§9) 1=25% of the cells affected by virus;
(§10) 0=No CPE; normal cell monolayer.
(§11) The VR was calculated as 0.1 of the sum of the numerical differences between the recorded CPE grade of each test well and that of the corresponding virus control in the culture plate. Numerical differences between the scores of test wells containing a drug concentration which was partially cytotoxic (p) and their corresponding virus controls were halved.
(§12) The minimum inhibitory drug concentration which reduced the cytopathogenic effect (CPE) by 50% (MIC50) was calculated by using a regression analysis program for semilog curve fitting. A therapeutic index (TI) for each active compound for each susceptible virus was determined by dividing the minimum cytotoxic concentration of the test compound by the MIC50.

[2] = MTT drug cytotoxicity assay in MRC5 cells; format: cell-based; details: human, read-out: MTT assay Percent of control
Protocol: Human diploid embryonic lung (MRC5) cells were grown in 35 mm wells of 6-well tissue culture plates. Subconfluent cell monolayers were rinsed with phosphate-buffered saline (PBS) and were exposed to 0.5 ml/well of HCMV (strain AD169) suspension for 1.5 hours at 37° C. The virus suspension was diluted in MEM+2% fetal bovine serum (FBS) to yield a multipicity of infection (MOI) of approximately 0.1 plaque forming units (PFU)/cell. Following the virus adsorption period, the inocula were removed and infected cell layers were rinsed with PBS. Aliquiots (2.0 ml) of each test drug concentration (dissolved in MEM supplemented with 2% FBS) were dispensed into triplicate cell cultures: two virus-infected cultures and one uninfected cytotoxicity control culture (exposed to medium without virus for 1.5 hours). Untreated virus-infected control cultures and untreated, uninfected cell control cultures were fed with medium alone. The culture plates were incubated at 37° C. in a humidified atmosphere of 2% CO2 in air.
All cell culture fluids were replaced with fresh drug and medium 48 hours postinfection (p.i.).
Drug cytotoxicity was determined quantitatively by a method based on the reduction of the tetrazolium salt, 3-(4,5-dimethyl-thiazol-2-yl)-2,5-diphenyl tetrazolium bromide (MTT) by mitochondrial enzymes of viable host cells to MTT formazan (T. Mosmann, 1983). Drug cytotoxicity controls and cell controls were treated with MTT (dissolved in culture medium) followed by 20% SDS (in 0.02N HCl) to dissolve the crystals of MTT formazan. The blue color of the MTT formazan was measured spectrophotometrically at 570 nm. Drug cytotoxicity was determined by comparing the absorbance (O.D.) of each drug cytotoxicity control with the mean O.D. of the cell control cultures and expressed as percent of control.

[3] = tested on: Herpes simplex type 1 (HSV-1) strain E-377; test: CPE-inhibition assay, herpes simplex type 1 strain E-377 in Vero cells; format: cell-based, herpes simplex virus type 1; details: for VR (Virus Rating): HSV-1 (E-377); for IC50: Human alphaherpesvirus 1, HSV-1 (E-377), minimum drug concentration that inhibited the CPE by 50%, read-out: ID50 (the source's name)
Protocol: as §1, §2, §3, §4, §5, §6, §7, §8, §9, §10, §11, §12

in vitro = format: cell-based, African green monkey; details: monkey, vero cells
Protocol: Vero cell monolayers were harvested by trypsinization. The number of viable cells per ml. was determined by staining an aliquot with trypan blue and counting in a hemocytometer. Cell densities were adjusted in growth medium to contain 4×10^5 cells/mi. 96-well sterile tissue culture plates were seeded with 100 μl/well of the adjusted cell suspensions, i.e., 4×10^4 cells/well. Seeded plates were incubated overnight at 37° C. with CO2.
After overnight incubation, monolayers were approximately confluent. The growth medium was removed and the monolayers in each cell were infected with 100 μl of virus diluted in maintenance medium to produce approximately 90% cytopathogenic effect (CPE) after 2 to 3 days incubation. The virus was allowed to adsorb for 1 hour at 37° C. with 4 to 6% CO2. Controls for cell growth were overlayed with virus-free maintenance medium. The maintenance medium containing residual virus was removed.
The test compounds were dissolved and/or diluted in maintenance medium to the concentration desired for testing and were added to the wells of the plate. Aliquots (100 μl ) of each concentration were added to wells in replicate (duplicate or triplicate). Controls for virus activity were overlayed with drug-free maintenance medium. Replicate wells containing only maintenance medium served as controls for background absorbance levels.
After incubation, the medium was removed from all the wells. 100 μl of neutral red solution was added to each well and the plate was incubated at 37° C. without CO2 for 2 hours. After the 2 hour incubation, the excess neutral red solution was removed. The plates were washed with 100 μl/well of PBS, pH 7.2 and then the PBS was removed.
The neutral red stain taken up by the viable cells was extracted by adding 100 μl/well of acidified methanol, pH 1.0. (The acidified methanol fixed the cells to the well). The plate was allowed to stand at room temperature for at least 15 minutes to allow for maximum extraction. The amount of neutral red stain extracted into the methanol was quantified by determining the absorbance at a wavelength of 540 nm. […]

Structure (SMILES)	VR (Virus Rating) [1]	IC50 ([1]; Human alphaherpesvirus 2, HSV-2 (MS), minimum drug concentration that inhibited the CPE by 50%, read-out: ID50 (the source's name)) [µg/mL]	viability ([2]; 0.32 μg/ml) [%]	viability ([2]; 1.0 μg/ml) [%]	viability ([2]; 3.2 μg/ml) [%]	viability ([2]; 10 μg/ml) [%]	VR (Virus Rating) [3]	IC50 [3] [µg/mL]	viability ([2]; 32 μg/ml) [%]	viability ([2]; 100 μg/ml) [%]	viability ([2]; 320 μg/ml) [%]	CC50 (in vitro) [µg/mL]
Nc1ccn([C@@H]2O[C@H](CO)[C@H]2CO)c(=O)n1 [Example 22, 1-([2'R,3'R,4'S]-3',4'-Bis(hydroxymethyl)-2'-oxetanyl)cytosine]	1.95	1 (≈ 4.4 µM)	84	81	77	78	2.65	0.8 (≈ 3.52 µM)				
O=c1ccn([C@@H]2O[C@H](CO)[C@H]2CO)c(=O)[nH]1 [Example 23, 1-([2'R,3'R,4'S]-3',4'-Bis(hydroxymethyl)-2'-oxetanyl)uracil]	0.5					100	0.6	307 (≈ 1340 µM)	100	98	100	
O=c1[nH]c(=O)n([C@@H]2O[C@H](CO)[C@H]2CO)cc1C=CBr [Example 44, 1-([2'R, 3'R, 4'S]-3',4'-Bis(hydroxymethyl)-2'-oxetanyl)-5-(2-bromo-1-vinyl)uracil]												> 1000
